# Literature values as cited in US11446277B2, “Penetrating pain relief cream” (priority 2019, dated 2022).
# Key:
# [1] = tested on: aggressive human breast cancer cells; details: in vitro
smiles,measurement,setting,value
"C=C(C)[C@@H]1CCC(C)=C[C@H]1c1c(O)cc(CCCCC)cc1O [CBD, Cannabidiol]",growth of bacteria,bacteria,inhibit the growth of bacteria
same,growth of aggressive human breast cancer cells,[1],reduce growth
same,invasiveness of aggressive human breast cancer cells,[1],reduce their invasiveness
same,analgesic properties,animal studies,analgesic properties
same,anti-inflammatory activity,animal studies,anti-inflammatory activity
same,sedation,animal tests,sedative effects
